Assay results reported in ChEMBL document CHEMBL3132769, “Fragment growing to retain or alter the selectivity of anchored kinase hinge-binding fragments” (Medchemcomm, 2014).

Legend:
[1] = target: Mitogen-activated protein kinase 3 (Homo sapiens) (UniProt P27361); experiment: Inhibition of human full length ERK1 expressed in Escherichia coli cell assessed as substrate phosphorylation using fluorescence-labelled peptides as substrate at 70 uM after 90 mins by microfluidic peptide phosphorylation assay
[2] = target: Ribosomal protein S6 kinase alpha-4 (Homo sapiens) (UniProt O75676); experiment: Inhibition of human full length MSK2 expressed in baculovirus assessed as substrate phosphorylation using fluorescence-labelled peptides as substrate at 70 uM after 90 mins by microfluidic peptide phosphorylation assay
[3] = target: Tyrosine-protein kinase Fer (Homo sapiens) (UniProt P16591); experiment: Inhibition of human FER catalytic domain expressed in baculovirus assessed as substrate phosphorylation using fluorescence-labelled peptides as substrate at 0.2 uM after 90 mins by microfluidic peptide phosphorylation assay
[4] = target: T1, Testis-specific serine/threonine-protein kinase 1 (Homo sapiens) (UniProt Q9BXA7); experiment: Inhibition of human full length TSSK1 expressed in baculovirus assessed as substrate phosphorylation using fluorescence-labelled peptides as substrate at 420 uM after 90 mins by microfluidic peptide phosphorylation assay
T1 sequence (whole entry): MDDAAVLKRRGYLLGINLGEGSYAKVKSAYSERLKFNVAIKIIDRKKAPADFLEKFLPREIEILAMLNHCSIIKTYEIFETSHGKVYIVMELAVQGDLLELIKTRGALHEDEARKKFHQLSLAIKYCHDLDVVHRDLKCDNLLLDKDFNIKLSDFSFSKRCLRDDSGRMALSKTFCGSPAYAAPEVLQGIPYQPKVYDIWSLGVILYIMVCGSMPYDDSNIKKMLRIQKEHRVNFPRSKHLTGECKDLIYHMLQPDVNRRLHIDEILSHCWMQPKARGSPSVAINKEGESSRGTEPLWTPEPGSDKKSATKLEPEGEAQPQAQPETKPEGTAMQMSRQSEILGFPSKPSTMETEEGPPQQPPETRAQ

[5] = target: Tyrosine-protein kinase ABL2 (Homo sapiens) (UniProt P42684); experiment: Inhibition of human truncated Arg expressed in baculovirus assessed as substrate phosphorylation using fluorescence-labelled peptides as substrate at 420 uM after 90 mins by microfluidic peptide phosphorylation assay
[6] = target: T2, Serine/threonine-protein kinase D3 (Homo sapiens) (UniProt O94806); experiment: Inhibition of human full length PKD3 expressed in baculovirus assessed as substrate phosphorylation using fluorescence-labelled peptides as substrate at 420 uM after 90 mins by microfluidic peptide phosphorylation assay
T2 sequence (whole entry): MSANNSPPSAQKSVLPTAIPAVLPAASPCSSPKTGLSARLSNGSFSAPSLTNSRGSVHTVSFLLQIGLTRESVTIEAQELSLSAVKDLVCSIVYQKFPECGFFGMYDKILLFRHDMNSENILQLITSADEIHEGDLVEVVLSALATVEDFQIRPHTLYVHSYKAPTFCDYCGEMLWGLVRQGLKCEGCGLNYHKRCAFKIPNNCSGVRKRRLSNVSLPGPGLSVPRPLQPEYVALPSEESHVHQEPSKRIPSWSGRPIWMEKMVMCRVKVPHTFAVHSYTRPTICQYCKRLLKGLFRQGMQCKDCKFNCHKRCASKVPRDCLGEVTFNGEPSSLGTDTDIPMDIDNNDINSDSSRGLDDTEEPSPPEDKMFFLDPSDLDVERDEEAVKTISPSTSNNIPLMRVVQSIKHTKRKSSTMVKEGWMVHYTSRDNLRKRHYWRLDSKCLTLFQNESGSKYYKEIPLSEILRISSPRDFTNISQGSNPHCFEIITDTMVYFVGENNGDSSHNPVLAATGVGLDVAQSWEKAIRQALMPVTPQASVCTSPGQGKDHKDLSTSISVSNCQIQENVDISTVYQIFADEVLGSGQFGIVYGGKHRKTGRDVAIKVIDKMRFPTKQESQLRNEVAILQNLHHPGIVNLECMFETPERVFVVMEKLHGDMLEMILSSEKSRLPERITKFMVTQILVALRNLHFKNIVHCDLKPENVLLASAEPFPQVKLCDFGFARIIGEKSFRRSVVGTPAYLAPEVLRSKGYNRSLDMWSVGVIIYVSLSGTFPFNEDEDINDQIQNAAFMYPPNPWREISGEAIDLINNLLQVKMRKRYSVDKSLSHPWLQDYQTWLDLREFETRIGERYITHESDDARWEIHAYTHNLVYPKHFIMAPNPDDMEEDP

[7] = system: Fibroblast growth factor receptor 2 (Homo sapiens), P21802 [N549H]; experiment: Inhibition of human FGFR2 N549H mutant catalytic domain expressed in baculovirus assessed as substrate phosphorylation using fluorescence-labelled peptides as substrate at 95 uM after 90 mins by microfluidic peptide phosphorylation assay
[8] = target: RAC-alpha serine/threonine-protein kinase (Homo sapiens) (UniProt P31749); experiment: Inhibition of human AKT1 catalytic domain expressed in baculovirus assessed as substrate phosphorylation using fluorescence-labelled peptides as substrate at 95 uM after 90 mins by microfluidic peptide phosphorylation assay
[9] = target: Proto-oncogene tyrosine-protein kinase Src (Homo sapiens) (UniProt P12931); experiment: Inhibition of human full length SRC expressed in baculovirus assessed as substrate phosphorylation using fluorescence-labelled peptides as substrate at 9 uM after 90 mins by microfluidic peptide phosphorylation assay
[10] = target: T3, Interleukin-1 receptor-associated kinase 4 (Homo sapiens) (UniProt Q9NWZ3); experiment: Inhibition of human IRAK4 catalytic domain expressed in baculovirus assessed as substrate phosphorylation using fluorescence-labelled peptides as substrate at […] after 90 mins by microfluidic peptide phosphorylation assay
T3 sequence (whole entry): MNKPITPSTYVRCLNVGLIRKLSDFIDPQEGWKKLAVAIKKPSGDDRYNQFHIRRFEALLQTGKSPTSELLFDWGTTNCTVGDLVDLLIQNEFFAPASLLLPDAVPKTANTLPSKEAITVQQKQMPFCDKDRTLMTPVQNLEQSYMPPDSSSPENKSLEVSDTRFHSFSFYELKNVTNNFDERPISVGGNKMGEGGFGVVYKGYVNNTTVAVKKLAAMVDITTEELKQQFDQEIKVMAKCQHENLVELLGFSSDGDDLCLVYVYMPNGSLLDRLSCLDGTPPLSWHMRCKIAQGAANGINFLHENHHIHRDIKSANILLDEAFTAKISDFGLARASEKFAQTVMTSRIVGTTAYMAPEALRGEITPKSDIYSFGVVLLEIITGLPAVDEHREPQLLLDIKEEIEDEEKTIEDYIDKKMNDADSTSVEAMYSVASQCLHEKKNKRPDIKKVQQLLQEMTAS

Chain of Mitogen-activated protein kinase 3 (Homo sapiens) (P27361 whole entry): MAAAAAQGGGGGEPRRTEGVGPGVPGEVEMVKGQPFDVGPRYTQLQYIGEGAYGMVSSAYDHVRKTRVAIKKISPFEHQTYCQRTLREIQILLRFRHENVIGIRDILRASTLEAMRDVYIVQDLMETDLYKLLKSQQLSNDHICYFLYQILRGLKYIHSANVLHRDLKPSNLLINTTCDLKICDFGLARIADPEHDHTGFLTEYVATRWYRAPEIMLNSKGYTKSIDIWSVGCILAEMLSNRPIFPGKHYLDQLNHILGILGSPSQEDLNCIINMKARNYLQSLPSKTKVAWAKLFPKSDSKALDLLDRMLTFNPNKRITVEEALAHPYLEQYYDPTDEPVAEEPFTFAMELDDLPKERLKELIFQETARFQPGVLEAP
Chain of Ribosomal protein S6 kinase alpha-4 (Homo sapiens) (O75676 whole entry, looked up, the tested form may be a part): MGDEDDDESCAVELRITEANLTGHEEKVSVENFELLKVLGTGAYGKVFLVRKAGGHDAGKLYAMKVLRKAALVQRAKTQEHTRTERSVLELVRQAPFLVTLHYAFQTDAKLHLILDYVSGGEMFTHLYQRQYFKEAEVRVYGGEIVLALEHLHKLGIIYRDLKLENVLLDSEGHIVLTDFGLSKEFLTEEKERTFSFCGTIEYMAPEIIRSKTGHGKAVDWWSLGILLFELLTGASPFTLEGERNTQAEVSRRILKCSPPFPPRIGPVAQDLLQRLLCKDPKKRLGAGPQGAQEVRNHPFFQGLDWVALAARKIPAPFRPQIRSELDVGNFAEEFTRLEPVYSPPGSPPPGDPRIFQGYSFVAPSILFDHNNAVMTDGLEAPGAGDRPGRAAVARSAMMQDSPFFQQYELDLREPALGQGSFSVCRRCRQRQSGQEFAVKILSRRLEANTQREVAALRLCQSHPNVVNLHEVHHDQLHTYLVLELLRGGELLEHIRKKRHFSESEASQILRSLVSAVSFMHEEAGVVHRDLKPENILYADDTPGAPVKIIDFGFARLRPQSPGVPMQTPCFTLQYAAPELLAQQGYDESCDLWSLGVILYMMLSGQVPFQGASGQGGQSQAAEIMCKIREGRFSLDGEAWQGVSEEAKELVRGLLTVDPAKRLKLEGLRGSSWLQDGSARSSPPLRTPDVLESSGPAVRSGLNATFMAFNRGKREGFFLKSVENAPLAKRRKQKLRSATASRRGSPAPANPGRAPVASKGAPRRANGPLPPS
Chain of Tyrosine-protein kinase ABL2 (Homo sapiens) (P42684 whole entry, the tested form may be a part): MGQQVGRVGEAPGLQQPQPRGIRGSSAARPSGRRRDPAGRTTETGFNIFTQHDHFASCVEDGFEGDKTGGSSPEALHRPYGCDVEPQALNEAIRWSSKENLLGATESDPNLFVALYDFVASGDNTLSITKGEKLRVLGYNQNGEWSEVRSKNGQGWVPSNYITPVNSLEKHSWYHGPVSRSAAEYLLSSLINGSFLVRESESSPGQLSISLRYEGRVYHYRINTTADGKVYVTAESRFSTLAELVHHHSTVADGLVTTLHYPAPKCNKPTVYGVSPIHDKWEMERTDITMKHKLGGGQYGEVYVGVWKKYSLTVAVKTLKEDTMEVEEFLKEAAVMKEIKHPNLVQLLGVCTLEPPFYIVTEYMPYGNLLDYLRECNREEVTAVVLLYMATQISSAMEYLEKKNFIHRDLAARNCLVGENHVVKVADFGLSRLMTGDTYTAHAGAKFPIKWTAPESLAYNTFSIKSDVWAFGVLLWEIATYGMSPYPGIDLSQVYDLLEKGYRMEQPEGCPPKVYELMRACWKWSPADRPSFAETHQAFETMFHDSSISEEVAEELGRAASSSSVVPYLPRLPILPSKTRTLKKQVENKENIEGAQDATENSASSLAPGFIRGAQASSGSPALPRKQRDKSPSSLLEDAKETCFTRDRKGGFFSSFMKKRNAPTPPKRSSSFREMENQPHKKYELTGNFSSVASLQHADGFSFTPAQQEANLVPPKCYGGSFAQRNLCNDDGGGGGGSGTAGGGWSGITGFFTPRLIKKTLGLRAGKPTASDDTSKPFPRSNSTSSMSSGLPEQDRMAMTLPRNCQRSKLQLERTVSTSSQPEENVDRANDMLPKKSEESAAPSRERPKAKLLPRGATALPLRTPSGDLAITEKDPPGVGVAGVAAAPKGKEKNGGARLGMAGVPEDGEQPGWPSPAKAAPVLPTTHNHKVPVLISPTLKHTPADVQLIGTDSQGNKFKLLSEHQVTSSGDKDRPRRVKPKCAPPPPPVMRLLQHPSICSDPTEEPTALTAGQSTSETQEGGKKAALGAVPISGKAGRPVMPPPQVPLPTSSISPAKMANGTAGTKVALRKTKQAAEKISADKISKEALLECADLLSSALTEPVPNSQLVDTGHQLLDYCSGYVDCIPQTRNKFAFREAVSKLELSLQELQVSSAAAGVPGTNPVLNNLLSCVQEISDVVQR
Chain of Fibroblast growth factor receptor 2 (Homo sapiens), P21802 [N549H] (P21802 whole entry N549H, the tested form may be a part): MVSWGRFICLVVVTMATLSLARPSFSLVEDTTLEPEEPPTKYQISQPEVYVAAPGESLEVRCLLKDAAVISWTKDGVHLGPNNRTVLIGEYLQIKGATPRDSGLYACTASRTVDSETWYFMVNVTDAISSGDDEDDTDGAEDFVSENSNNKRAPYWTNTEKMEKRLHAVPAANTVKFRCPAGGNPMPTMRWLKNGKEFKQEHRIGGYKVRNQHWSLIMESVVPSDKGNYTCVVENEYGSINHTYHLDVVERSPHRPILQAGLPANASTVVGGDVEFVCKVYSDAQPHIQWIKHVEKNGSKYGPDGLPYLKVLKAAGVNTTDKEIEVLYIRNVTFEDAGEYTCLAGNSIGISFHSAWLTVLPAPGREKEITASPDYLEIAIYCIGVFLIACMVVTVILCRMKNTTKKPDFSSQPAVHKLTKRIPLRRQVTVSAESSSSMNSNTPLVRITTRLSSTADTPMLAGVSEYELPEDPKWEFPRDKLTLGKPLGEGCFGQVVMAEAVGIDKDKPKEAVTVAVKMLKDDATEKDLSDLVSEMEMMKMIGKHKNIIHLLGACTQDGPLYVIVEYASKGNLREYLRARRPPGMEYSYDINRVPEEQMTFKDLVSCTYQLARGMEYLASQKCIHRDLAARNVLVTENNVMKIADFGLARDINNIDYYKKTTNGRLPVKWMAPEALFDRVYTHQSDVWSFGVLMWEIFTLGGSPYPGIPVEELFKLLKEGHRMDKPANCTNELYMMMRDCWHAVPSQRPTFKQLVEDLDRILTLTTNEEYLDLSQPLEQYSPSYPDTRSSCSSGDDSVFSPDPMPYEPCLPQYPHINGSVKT
Chain of Tyrosine-protein kinase Fer (Homo sapiens) (P16591 whole entry, looked up, the tested form may be a part): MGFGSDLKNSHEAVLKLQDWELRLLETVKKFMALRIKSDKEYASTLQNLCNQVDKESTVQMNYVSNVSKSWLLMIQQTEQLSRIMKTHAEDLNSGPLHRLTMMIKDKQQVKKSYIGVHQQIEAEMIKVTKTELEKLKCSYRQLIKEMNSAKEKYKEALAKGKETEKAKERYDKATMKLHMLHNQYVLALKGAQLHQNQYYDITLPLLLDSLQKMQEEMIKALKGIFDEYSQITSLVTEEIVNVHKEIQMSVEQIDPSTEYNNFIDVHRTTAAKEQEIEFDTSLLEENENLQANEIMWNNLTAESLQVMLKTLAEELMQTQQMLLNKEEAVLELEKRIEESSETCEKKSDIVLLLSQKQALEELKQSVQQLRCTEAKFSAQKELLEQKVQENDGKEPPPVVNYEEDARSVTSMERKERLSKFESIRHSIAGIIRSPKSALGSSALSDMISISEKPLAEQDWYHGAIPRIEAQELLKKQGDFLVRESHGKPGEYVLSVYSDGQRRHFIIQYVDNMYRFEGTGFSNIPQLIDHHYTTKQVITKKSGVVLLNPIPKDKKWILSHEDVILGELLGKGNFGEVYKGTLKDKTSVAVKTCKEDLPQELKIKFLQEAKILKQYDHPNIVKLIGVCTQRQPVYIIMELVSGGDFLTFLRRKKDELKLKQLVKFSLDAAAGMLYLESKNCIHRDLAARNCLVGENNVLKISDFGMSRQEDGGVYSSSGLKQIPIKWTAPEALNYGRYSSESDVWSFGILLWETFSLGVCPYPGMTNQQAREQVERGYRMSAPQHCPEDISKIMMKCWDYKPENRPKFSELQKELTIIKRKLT
Chain of Proto-oncogene tyrosine-protein kinase Src (Homo sapiens) (P12931 2-536 limits assumed): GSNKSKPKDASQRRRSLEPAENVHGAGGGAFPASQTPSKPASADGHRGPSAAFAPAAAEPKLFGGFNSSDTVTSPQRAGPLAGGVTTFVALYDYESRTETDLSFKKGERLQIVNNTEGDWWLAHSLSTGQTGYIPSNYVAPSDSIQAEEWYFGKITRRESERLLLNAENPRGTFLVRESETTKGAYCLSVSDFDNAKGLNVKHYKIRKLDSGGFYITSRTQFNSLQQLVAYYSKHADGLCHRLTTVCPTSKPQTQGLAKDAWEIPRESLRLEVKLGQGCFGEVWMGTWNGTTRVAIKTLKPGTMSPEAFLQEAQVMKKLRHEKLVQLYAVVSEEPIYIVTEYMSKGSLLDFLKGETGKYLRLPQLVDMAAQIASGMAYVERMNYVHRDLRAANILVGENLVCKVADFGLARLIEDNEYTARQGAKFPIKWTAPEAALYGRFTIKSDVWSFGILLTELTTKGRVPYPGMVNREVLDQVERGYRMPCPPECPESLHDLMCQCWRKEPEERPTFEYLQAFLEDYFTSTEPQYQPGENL
Chain of RAC-alpha serine/threonine-protein kinase (Homo sapiens) (P31749 whole entry, the tested form may be a part): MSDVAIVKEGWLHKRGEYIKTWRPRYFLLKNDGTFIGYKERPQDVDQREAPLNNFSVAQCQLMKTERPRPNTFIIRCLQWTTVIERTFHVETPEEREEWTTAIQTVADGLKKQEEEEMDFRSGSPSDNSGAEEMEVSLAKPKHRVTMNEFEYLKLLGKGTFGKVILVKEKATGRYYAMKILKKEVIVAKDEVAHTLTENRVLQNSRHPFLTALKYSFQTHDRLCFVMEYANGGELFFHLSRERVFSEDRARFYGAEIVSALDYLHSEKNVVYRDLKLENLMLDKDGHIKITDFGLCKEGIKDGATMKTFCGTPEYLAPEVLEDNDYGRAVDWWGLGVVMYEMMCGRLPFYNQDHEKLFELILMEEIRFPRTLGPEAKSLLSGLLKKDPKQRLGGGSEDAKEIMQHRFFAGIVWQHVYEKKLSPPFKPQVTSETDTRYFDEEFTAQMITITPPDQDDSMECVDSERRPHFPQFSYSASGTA

## CNCc1ccc(-c2ncnc3[nH]cnc23)cc1
[1]
  inhibition: 28.5%
[2]
  inhibition: 68%

## Clc1ccc(C2(c3ccc(-c4ncnc5[nH]cnc45)cc3)CCNCC2)cc1
[3]
  inhibition: 2.5%

## c1nc(N2CCOCC2)c2nc[nH]c2n1
[4]
  inhibition: 71%
[5]
  inhibition: 54.5%
[6]
  inhibition: 85%

## NCCc1ccc(-c2ncnc3[nH]cnc23)cc1
[7]
  inhibition: 40%
[8]
  inhibition: 81%

## NCC1CN(c2ncnc3[nH]c4cnccc4c23)CCO1 (stereo not given)
[9]
  inhibition: 19.5%

## COC(=O)c1cnc(Nc2cnc(C#N)cn2)cc1NCC1CCNCC1
[10]
  inhibition: 5.5%
